For assay [1], the system named is 24-hydroxylase (24Ohase) gene promoter. Nature of the assay: In vitro transcription assay (luciferase reporter in ROS 17/2.8 bone cells). The class given is cell-based. To be noted: FIG. 3; for EC50: ROS 17/2.8 cells, 24Ohase promoter-luciferase, 16 h, read-out: EC50, transcriptional activity in bone cells. The procedure:
Transcription activity was measured in ROS 17/2.8 (bone) cells that were stably transfected with a 24-hydroxylase (24Ohase) gene promoter upstream of a luciferase reporter gene (Arbour et al., 1998). Cells were given a range of doses. Sixteen hours after dosing the cells were harvested and luciferase activities were measured using a luminometer.
RLU=Relative Luciferase Units.
A general note: Reporter assays use an easily measured gene product as a stand-in for the process of interest.

The nature of assay [2]: Bone calcium mobilization (serum calcium) in vitamin D-deficient rats. The class given is in vivo, rat. Here is the method:
(§1) Male, weanling Sprague-Dawley rats were placed on Diet 11 (0.47% Ca) diet +AEK for one week followed by Diet 11 (0.02% Ca) +AEK for 3 weeks. The rats were then switched to a diet containing 0.47% Ca for one week followed by two weeks on a diet containing 0.02% Ca. Dose administration began during the last week on 0.02% calcium diet. Four consecutive ip doses were given approximately 24 hours apart. Twenty-four hours after the last dose, blood was collected from the severed neck and the concentration of serum calcium determined as a measure of bone calcium mobilization. The first 10 cm of the intestine was also collected for intestinal calcium transport analysis using the everted gut sac method.

Assay [3] in a line: Intestinal calcium transport (everted gut sac) in vitamin D-deficient rats. The format is in vivo, rat. To be noted: for Intestinal calcium transport: everted gut sac, vitamin D-deficient rats, FIG. 5. Here is the method:
as §1

The test system of assay [4] is Human promyelocytic leukemia (HL60) cells. Description: HL-60 differentiation (nitro blue tetrazolium reduction). To be noted: FIG. 2; for EC50: HL60 cells, 4 days, NBT reduction. The format is cell-based. Here is the method: The study drugs were dissolved in ethanol and the concentrations determined using UV spectrophotometry. Serial dilutions were prepared so that a range of drug concentrations could be tested without changing the final concentration of ethanol (≦0.2%) present in the cell cultures.
Human promyelocytic leukemia (HL60) cells were grown in RPMI-1640 medium containing 10% fetal bovine serum. The cells were incubated at 37° C. in the presence of 5% CO2.
HL60 cells were plated at 1.2×10^5 cells/ml. Eighteen hours after plating, cells in duplicate were treated with drug. Four days later, the cells were harvested and a nitro blue tetrazolium reduction assay was performed (Collins et al., 1979; J. Exp. Med. 149:969-974). The percentage of differentiated cells was determined by counting a total of 200 cells and recording the number that contained intracellular black-blue formazan deposits. Verification of differentiation to monocytic cells was determined by measuring phagocytic activity (data not shown).

Assay [5] addresses T1, full-length recombinant rat vitamin D receptor (Rattus norvegicus, UniProt P13053).
T1 construct: Full-length recombinant rat receptor was expressed in E. coli; histidine tag (C); made in house; host or cells: E. coli BL21 (DE3) Codon Plus RIL
T1 sequence (P13053 1-423): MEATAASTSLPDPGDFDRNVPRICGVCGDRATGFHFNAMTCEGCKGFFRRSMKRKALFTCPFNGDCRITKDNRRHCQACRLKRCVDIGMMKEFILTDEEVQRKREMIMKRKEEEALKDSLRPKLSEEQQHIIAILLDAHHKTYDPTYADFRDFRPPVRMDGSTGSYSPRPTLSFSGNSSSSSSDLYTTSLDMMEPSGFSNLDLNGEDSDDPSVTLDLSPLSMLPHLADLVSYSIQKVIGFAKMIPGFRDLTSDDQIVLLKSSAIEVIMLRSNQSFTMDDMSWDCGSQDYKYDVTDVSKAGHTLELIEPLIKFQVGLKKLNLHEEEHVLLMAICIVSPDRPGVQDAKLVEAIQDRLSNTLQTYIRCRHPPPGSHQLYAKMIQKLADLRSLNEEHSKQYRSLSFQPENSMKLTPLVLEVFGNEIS
Nature of the assay: Vitamin D receptor binding (competition with [3H]-1,25(OH)2D3). To be noted: full-length recombinant rat VDR; FIG. 1. The procedure: Full-length recombinant rat receptor was expressed in E. coli BL21 (DE3) Codon Plus RIL cells and purified to homogeneity using two different column chromatography systems. The first system was a nickel affinity resin that utilizes the C-terminal histidine tag on this protein. The protein that was eluted from this resin was further purified using ion exchange chromatography (S-Sepharose Fast Flow). Aliquots of the purified protein were quick frozen in liquid nitrogen and stored at −80° C. until use. For use in binding assays, the protein was diluted in TEDK50 (50 mM Tris, 1.5 mM EDTA, pH7.4, 5 mM DTT, 150 mM KCl) with 0.1% Chaps detergent. The receptor protein and ligand concentration were optimized such that no more than 20% of the added radiolabeled ligand was bound to the receptor.
Radiolabeled and unlabeled ligands were added to 100 mcl of the diluted protein at a final ethanol concentration of ≦10%, mixed and incubated overnight on ice to reach binding equilibrium. The following day, 100 mcl of hydroxylapatite slurry (50%) was added to each tube and mixed at 10-minute intervals for 30 minutes. […] After the final wash, the pellets were transferred to scintillation vials containing 4 ml of Biosafe II scintillation cocktail, mixed and placed in a scintillation counter. Total binding was determined from the tubes containing only radiolabeled ligand.

Consider `C=C1/C(=C\C=C2/CCC[C@]3(C)[C@@H]([C@H](C)CCCC(C)(C)O)CC[C@@H]23)C[C@@H](O)C[C@@H]1O` [1,25(OH)2D3, 1α,25-dihydroxyvitamin D3, reference compound], for which the EC50 (usually the concentration giving half of the maximal effect) worked out at 0.2 nM in assay [1] and 20 nM in assay [4]. In assay [2] (at the dosage tested, vitamin D-deficient rats on low calcium diet (0.02%), FIG. 4), the “Serum calcium levels (bone calcium mobilization)” value is recorded as “increased serum calcium levels”. For the same molecule, the Intestinal calcium transport result in assay [3] (260 pmol/day) was “promotes a significant increase”.

On to `CCC(C)(C)C1CCC2C(=CC=C3CC(O)C(=CCCO)C(O)C3)CCCC21C` (stereo not drawn) [20DC, 1α-hydroxy-2-[3′-hydroxypropylidene]-20-methyl-19,24,25,26,27-pentanorvitamin D3], for which the “Transcriptional activity in bone cells compared to 1α,25-dihydroxyvitamin D3 (in words)” value in assay [1] is “about the same transcriptional activity”. Moreover, the EC50 stood at 2 nM in assay [1] and 50 nM in assay [4] (Homo sapiens, HL-60, 96 h). For the same molecule, the “Bone calcium mobilization (serum calcium)” value was “did not result in mobilization of bone calcium” in assay [2] (260 pmol/day ip for 4 consecutive days, vitamin D-deficient rats on low calcium diet (0.02%), FIG. 4) and “without any substantial effect” in assay [2] (2340 pmol/day ip for 4 consecutive days, vitamin D-deficient rats on low calcium diet (0.02%), FIG. 4). For the same molecule, the “Bone calcium mobilization activity compared to 1,25(OH)2D3 (in words)” value in assay [2] (FIG. 4, overall) is on record as “very little bone calcium mobilization activity”. The Intestinal calcium transport result in assay [3] (260 pmol/day) and in assay [3] (2340 pmol/day) was “does not promote intestinal calcium transport” in each case. In assay [3] (FIG. 5, overall), the “Stimulating intestinal calcium transport compared to 1,25(OH)2D3 (in words)” value is recorded as “very little activity”. Moreover, the “HL-60 cell differentiation potency compared to 1,25(OH)2D3 (in words)” value in assay [4] was “about as potent as 1,25(OH)2D3”. In addition, the “Binding to vitamin D receptor compared to 1,25-(OH)2D3 (in words)” value in assay [5] is recorded as “bound equally well”. In addition, in assay [5], the Ki (commonly the equilibrium dissociation constant of an inhibitor or competing ligand from its target) turned out to be 0.08 nM.

The record behind these values is patent publication US7763598B2, “1α-hydroxy-2-(3′-hydroxypropylidene)-19-nor-vitamin D compounds with a 1,1-dimethylpropyl side chain” (Wisconsin Alumni Research Foundation, priority 2006, dated 2010).
